Measured values published in patent US8604042B2, “Bi-aryl meta-pyrimidine inhibitors of kinases” (TargeGen, Inc., priority 2005, dated 2013).
Counter-ions that a name gives are not always drawn.

Each compound was assayed against T1, recombinant JAK2 (Homo sapiens, UniProt O60674) (assay: IC50 value determinations for Jak2 kinase, luminescence-based kinase assay (Kinase-Glo)). Settings: Table 1.
T1 construct: purchased Upstate Cell Signaling Solutions
Format: biochemical
Description: The IC50 values for compounds were determined using a luminescence-based kinase assay with recombinant JAK2 obtained from Upstate Cell Signaling Solutions. In white, flat bottom, 96-well plates (Nunc) parallel assays were run at room temperature at a final volume of 50 μL.
Two control reactions were also ran: one reaction containing no compound and the second containing neither inhibitor nor peptide substrate. IC50 values were derived from experimental data using the non-linear curve fitting capabilities of Prism (Version 4; GraphPad Software).

T1 sequence (O60674 808-1132 limits assumed): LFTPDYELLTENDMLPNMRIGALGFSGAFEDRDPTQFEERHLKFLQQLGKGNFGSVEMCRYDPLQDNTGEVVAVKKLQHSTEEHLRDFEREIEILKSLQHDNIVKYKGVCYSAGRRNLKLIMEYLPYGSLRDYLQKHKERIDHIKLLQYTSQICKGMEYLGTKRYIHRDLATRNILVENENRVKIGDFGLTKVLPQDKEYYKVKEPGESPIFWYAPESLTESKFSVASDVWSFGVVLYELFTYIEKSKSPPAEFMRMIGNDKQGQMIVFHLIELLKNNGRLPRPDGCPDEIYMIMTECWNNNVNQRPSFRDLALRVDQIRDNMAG

SMILES | IC50 [nM]
Cc1cnc(Nc2ccc(OCCN3CCCC3)cc2)nc1Nc1cccc(OC(F)(F)F)c1 [N2-(4-(2-(pyrrolidin-1-yl)ethoxy)phenyl)-5-methyl-N4-(3-(trifluoromethoxy)phenyl) pyrimidine-2,4-diamine] | 20.7
Cc1cnc(Nc2ccc(CN3CCOCC3)cc2)nc1Nc1cccc(S(=O)(=O)NC(C)(C)C)c1 [N-tert-Butyl-3-[5-methyl-2-(4-morpholin-4-ylmethyl-phenylamino)-pyrimidin-4-ylamino]-benzenesulfonamide] | 12.5
Cc1cnc(Nc2ccc(OCCN3CCCC3)cc2)nc1Nc1cccc(O)c1 [3-(2-(4-(2-(pyrrolidin-1-yl)ethoxy)phenylamino)-5-methylpyrimidin-4-ylamino)phenol Hydrochloride] | 203
Cc1cnc(Nc2ccc(-n3ccnc3C)cc2)nc1Nc1cccc(C(C)(C)C)c1 [N4-(3-tert-butylphenyl)-5-methyl-N2-(4-(2-methyl-1H-imidazol-1-yl)phenyl)pyrimidine-2,4-diamine Hydrochloride] | 38.4
Cc1cnc(Nc2ccc(OC3CCNCC3)cc2)nc1Nc1cccc2[nH]ccc12 [N4-(1H-indol-4-yl)-5-methyl-N2-(4-(piperidin-4-yloxy)phenyl)pyrimidine-2,4-diamine trifluoroacetic acid salt] | 4.27
Cc1cnc(Nc2ccc(OCCN3CCCC3)cc2)nc1Nc1cccc(N(C)C)c1 [N4-(3-Dimethylamino-phenyl)-5-methyl-N2-[4-(2-pyrrolidin-1-yl-ethoxy)-phenyl]-pyrimidine-2,4-diamine] | 19.7
Cc1cnc(Nc2ccc(OCCN3CCCC3)cc2)nc1Nc1cccc([N+](=O)[O-])c1 [N2-(4-(2-(pyrrolidin-1-yl)ethoxy)phenyl)-5-methyl-N4-(3-nitrophenyl)pyrimidine-2,4-diamine Hydrochloride] | 61.1
Cc1cnc(Nc2ccc(N3CCN(C)CC3)cc2)nc1Nc1cccc(S(=O)(=O)NC2CCCCC2)c1 [N-Cyclohexyl-3-{5-methyl-2-[4-(4-methyl-piperazin-1-yl)-phenylamino)-pyrimidin-4-ylamino}-benzenesulfonamide] | 39.4
COc1cc(Nc2nc(Nc3cccc(N4CCNCC4)c3)ncc2C)ccc1Cl [N4-(4-Chloro-3-methoxy-phenyl)-5-methyl-N2-(3-piperazin-1-yl-phenyl)-pyrimidine-2,4-diamine] | 9.52
Cc1cnc(Nc2cccc(S(=O)(=O)N3CCCCC3)c2)nc1Nc1cccc(S(=O)(=O)NC(C)(C)C)c1 [N-tert-Butyl-3-{5-methyl-2-[3-(piperidine-1-sulfonyl)-phenylamino]-pyrimidin-4-ylamino}-benzenesulfonamide] | 316
Cc1cnc(Nc2ccc(-c3nnn[nH]3)cc2)nc1Nc1cccc(S(=O)(=O)NC(C)(C)C)c1 [N-tert-Butyl-3-{5-methyl-2-[4-(1H-tetrazol-5-yl)-phenylamino]-pyrimidin-4-ylamino}-benzenesulfonamide] | 96.7
Cc1cnc(Nc2ccc(OCCN3CCCC3)cc2)nc1Nc1cccc2[nH]ccc12 [N2-(4-(2-(pyrrolidin-1-yl)ethoxy)phenyl)-N4-(1H-indol-4-yl)-5-methylpyrimidine-2,4-diamine Hydrochloride] | 19.2
Cc1cnc(Nc2ccc(OCCN3CCCC3)cc2)nc1Nc1cccc(S(N)(=O)=O)c1 [3-{5-Methyl-2-[4-(2-pyrrolidin-1-yl-ethoxy)-phenylamino]-pyrimidin-4-ylamino}-benzenesulfonamide] | 72.2
Cc1cnc(Nc2ccc(N3CCN(C)CC3)cc2)nc1Nc1cccc(C(C)(C)C)c1 [N4-(3-tert-butylphenyl)-5-methyl-N2-(4-(4-methylpiperazin-1-yl)phenyl)pyrimidine-2,4-diamine Hydrochloride] | 4.7
COc1cccc(Nc2ccnc(Nc3ccc(OCCN4CCCC4)cc3)n2)c1C [N4-(3-Methoxy-2-methyl-phenyl)-N2-[4-(2-pyrrolidin-1-yl-ethoxy)-phenyl]-pyrimidine-2,4-diamine] | 371
COc1cc(Nc2nc(Nc3ccc(OCCN4CCCC4)cc3)ncc2C)ccc1F [N4-(4-Fluoro-3-methoxy-phenyl)-5-methyl-N2-[4-(2-pyrrolidin-1-yl-ethoxy)-phenyl]-pyrimidine-2,4-diamine] | 14.8
COc1cc(Nc2nc(Nc3ccc(OC4CCNCC4)cc3)ncc2C)cc(OC)c1 [N4-(3,5-dimethoxyphenyl)-5-methyl-N2-(4-(piperidin-4-yloxy)phenyl)pyrimidine-2,4-diamine trifluoroacetate] | 137
Cc1cnc(Nc2ccc(N3CCN(C)CC3)cc2)nc1Nc1cccc(S(=O)(=O)NC2CCNCC2)c1 [3-{5-Methyl-2-[4-(4-methyl-piperazin-1-yl)-phenylamino]-pyrimidin-4-ylamino}-N-piperidin-4-yl-benzenesulfonamide] | 543
Cc1cnc(Nc2ccc(N3CCN(C)CC3)cc2)nc1Nc1cccc(C2CCNCC2)c1 [5-Methyl-N2-[4-(4-methyl-piperazin-1-yl)-phenyl]-N4-(3-piperidin-4-yl-phenyl)-pyrimidine-2,4-diamine] | 42.5
Cc1cnc(Nc2ccc(OCCN3CCCC3)cc2)nc1Nc1csc2ccccc12 [N4-Benzo[b]thiophen-3-yl-5-methyl-N2-[4-(2-pyrrolidin-1-yl-ethoxy)-phenyl]-pyrimidine-2,4-diamine] | 12.4
Cc1cnc(Nc2cccc(S(=O)(=O)N3CCN(C)CC3)c2)nc1Nc1cccc(S(=O)(=O)NC(C)(C)C)c1 [N-tert-butyl-3-{[5-methyl-2-({3-[(4-methylpiperazin-1-yl)sulfonyl]phenyl}amino)pyrimidin-4-yl]amino}benzenesulfonamide] | 650
COc1cc(Nc2nc(Nc3cccc(CN4CCNCC4)c3)ncc2C)ccc1Cl [N4-(4-Chloro-3-methoxy-phenyl)-5-methyl-N2-(3-piperazin-1-ylmethyl-phenyl)-pyrimidine-2,4-diamine] | 15.8
Cc1cnc(Nc2ccc(OCCN3CCCC3)cc2)nc1Nc1ccc(Cl)c(C(F)(F)F)c1 [N2-(4-(2-(pyrrolidin-1-yl)ethoxy)phenyl)-N4-(4-chloro-3-(trifluoromethyl)phenyl)-5-methylpyrimidine-2,4-diamine] | 23.4
CCN(CC)S(=O)(=O)c1cccc(Nc2nc(Nc3ccc(N4CCN(C)CC4)cc3)ncc2C)c1 [N,N-Diethyl-3-{5-methyl-2-(4-(4-methyl-piperazin-1-yl)-phenylamino]-pyrimidin-4-ylamino}-benzenesulfonamide] | 60.3
COc1cc(Nc2nc(Nc3ccc(N4CCN(C)CC4)cc3)ncc2C)ccc1Cl [N4-(4-Chloro-3-methoxy-phenyl)-5-methyl-N2-[4-(4-methyl-piperazin-1-yl)-phenyl]-pyrimidine-2,4-diamine] | 5.5
Cc1cnc(Nc2ccc(N3CCN(C)CC3)cc2)nc1Nc1cccc(S(C)(=O)=O)c1 [5-methyl-N2-(4-(4-methylpiperazin-1-yl)phenyl)-N4-(3-(methylsulfonyl)phenyl) pyrimidine-2,4-diamine] | 215
Cc1cnc(Nc2ccc(N3CCN(C)CC3)cc2)nc1Nc1cccc(C(N)=O)c1C [2-Methyl-3-{5-methyl-2-[4-(4-methyl-piperazin-1-yl)-phenylamino]-pyrimidin-4-ylamino}-benzamide] | 26.2

Same assay, conditions: Table 7, SAR for the P3 region

SMILES | IC50 [nM]
COc1ccc(Nc2ncc(C)c(Nc3cccc4c3OCO4)n2)cc1 [Compound 7] | 46
